Experimental data published in patent US20050282734A1 (priority 1998, published 2005).

Tests used:
[1] = mice, co-administered P-glycoprotein blocker; cited from earlier work
[2] = Magri et al. (1988); cited from earlier work
HSA = HSA (Homo sapiens, UniProt P02768); experiment: Effect of antioxidants on HSA dimerization at acidic pH (SDS-PAGE, reducing and non-reducing); settings: acidification of commercial HSA to pH 3.0-3.3; compared with ascorbic acid, L-cysteine, sodium thiosulfate
Procedure: This experiment evaluated a number of conditions to maintain HSA in the formulation, primarily in the monomeric form.
Evaluation of different antioxidants with undefatted and defatted acidic HSA preparations. • The following reducing reagents were tested: ascorbic acid, L-cysteine, dithioerythritol (DTE) and dithiothreitol (DTT), sodium metabisulfite, sodium thiosulfate, and thioacetic acid. • Different preparations of HSA (10%), including HSA-A, HSA-B, and HSA-D, were treated with antioxidant at different concentrations, ranging from 2 to 40 mM. • The HSA solutions were incubated at 2-8° C. for up to a month, and prevention of dimerization was analyzed by SDS-PAGE under both reducing and non-reducing conditions.
Analysis of the effect of antioxidant on prevention of HSA dimerization at low pH. • 5.
3.3 Add 80 μL of antioxidant solution to the 1.92 mL of HSA-A (20%) in 2×9′ (18) the 15-mL conical tubes as follows:
• Sample 9 will be the control sample for either HSA-B or HSA-D, untreated. • 3.4 Incubate the samples at 2-8° C. for at least 4 h. • 3.5 In the meantime, • 3.5.1 Prepare material for acidification and defatting of HSA. • 3.5.2 Prepare another 2×9 (18) set of 15-mL conical centrifuge tubes (sterile). […]

synoviocytes = settings: in vitro, cited from earlier work
[3] = molecular target: T1, human serum albumin (HSA) (Homo sapiens, UniProt P02768); experiment: Recovery of soluble Ptx and binding to HSA by liquid scintillation counting (radioactive Ptx; R, S, F fractions)
collagenase = settings: 10^−7 M paclitaxel, chondrocytes stimulated by tumor necrosis factor and interleukin-1; cited from earlier work
[4] = Solubility of paclitaxel in aqueous ethanol saline solution (visual turbidity); type: physicochemical
Procedure: Reagents Preparation • 1. […] A 20-ml physiological saline stock solution was also prepared in a small bottle (or flask) and designated the 1× saline stock solution.
4. The tubes were incubated at room temperature and observed at 0 h, 1 h and 3 h for precipitate formation. The results were recorded as + or − turbidity formation.

[5] = molecular target: T1, human serum albumin (HSA); experiment: Paclitaxel binding to HSA: ultrafiltration (10 kDa), free and total Ptx by ELISA and/or reverse-phase HPLC; parameters: purchased Desert Biologicals, Phoenix, Ariz; settings: pH 7.1
Procedure: • 1. […] Procedure • 1. […] Saline in water could also be added to the test tubes so that all the test tubes have substantially identical sodium chloride concentrations. • 3. […] The test tubes were covered with a piece of parafilm or in stoppered serum bottles and then incubated at room temperature, with occasional shaking (2 to 3 times). • 6. At 0 hr, 3 hr, and/or 18/24 hr of incubation, the samples were observed qualitatively for precipitate formation. • 7. At the end of the 18-24 hr incubation period, the reaction mixtures were analyzed for turbidity at 600 nm using a Shimadzu 160U UV/visible spectrophotometer (NBI Track #F1174). • 8. […] Analytical methods.
Procedure • 1. […] The test tubes were covered with a parafilm and then incubated at room temperature, with occasional shaking. Alternatively, the mixtures were prepared in stoppered serum vials. • 6.
This unbound fraction can be quantitated by reverse phase HPLC, and/or ELISA.

T1 sequence (P02768 25-609): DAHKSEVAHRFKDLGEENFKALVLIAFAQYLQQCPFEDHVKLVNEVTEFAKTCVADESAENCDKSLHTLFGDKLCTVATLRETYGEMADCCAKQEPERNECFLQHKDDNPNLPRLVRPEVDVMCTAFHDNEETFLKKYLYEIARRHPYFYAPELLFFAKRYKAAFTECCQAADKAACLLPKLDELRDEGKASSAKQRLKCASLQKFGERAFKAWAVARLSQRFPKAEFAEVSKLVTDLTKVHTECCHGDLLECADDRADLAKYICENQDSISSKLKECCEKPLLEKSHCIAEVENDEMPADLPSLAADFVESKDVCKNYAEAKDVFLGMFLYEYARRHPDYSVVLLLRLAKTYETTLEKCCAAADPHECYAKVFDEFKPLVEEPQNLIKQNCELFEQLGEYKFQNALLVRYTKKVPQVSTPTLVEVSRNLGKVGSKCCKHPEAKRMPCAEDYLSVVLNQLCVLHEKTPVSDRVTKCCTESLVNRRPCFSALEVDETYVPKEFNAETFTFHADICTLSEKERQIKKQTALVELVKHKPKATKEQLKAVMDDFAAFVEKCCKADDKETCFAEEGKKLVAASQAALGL
Sequence of HSA (P02768 25-609): as above

Q: Which “increase in oral bioavailability of paclitaxel” value [1] does the source give for C/C=C/C[C@@H](C)C(=O)[C@H]1C(=O)N[C@@H](C(C)C)C(=O)N(C)CC(=O)N(C)[C@@H](CC(C)C)C(=O)N[C@@H](C(C)C)C(=O)N(C)[C@@H](CC(C)C)C(=O)N[C@@H](C)C(=O)N[C@H](C)C(=O)N(C)[C@@H](CC(C)C)C(=O)N(C)[C@@H](CC(C)C)C(=O)N(C)[C@@H](C(C)C)C(=O)N1C [SDZ PSC 833] here?
A: Its value is 10 fold.

Q: With CC(=O)O[C@H]1C(=O)[C@@]2(C)[C@H]([C@H](OC(=O)c3ccccc3)[C@]3(O)C[C@H](OC(=O)[C@H](OC(=O)CCC(=O)O)[C@@H](NC(=O)c4ccccc4)c4ccccc4)C(C)=C1C3(C)C)[C@]1(OC(C)=O)CO[C@@H]1C[C@@H]2O [2′-succinyltaxol] as the molecule, how does the “in vivo activity compared with paclitaxel” value [2] read?
A: Its value is “decreased in vivo activity”.

Q: With O[C@H](CS)[C@@H](O)CS [DTE, dithioerythritol] as the molecule, how does the “effectiveness in minimizing the HSA dimerization reaction” value (HSA) read?
A: Its value is “most effective”.

Q: Which results are given for CC(=O)O[C@H]1C(=O)[C@@]2(C)[C@H]([C@H](OC(=O)c3ccccc3)[C@]3(O)C[C@H](OC(=O)[C@H](O)[C@@H](NC(=O)c4ccccc4)c4ccccc4)C(C)=C1C3(C)C)[C@]1(OC(C)=O)CO[C@@H]1C[C@@H]2O [Ptx, paclitaxel]?
A: concentration cytotoxic to the synoviocytes (synoviocytes): 10^−6 to 10^−5 M; concentration inhibiting proliferation of synoviocytes and inducing apoptosis (synoviocytes; concentrations as low as): 10^−7 M; chemical stability of Ptx in alkaline pH formulations [3]: poor; reduction of collagenase expression (collagenase): over 50%; time until paclitaxel solutions turned cloudy ([4]; 500 μg/ml paclitaxel, 20% ethanol or less, room temperature): ≤ 5 min; paclitaxel concentration at which solutions remained clear for at least 3 hours ([4]; aqueous ethanol saline solutions, room temperature): ≤ 50 µg/mL; paclitaxel concentration at which clear solutions were obtained ([4]; aqueous ethanol solutions (5% to 25%), after a 1-h incubation at room temperature): less than 100 μg/ml; solubility of paclitaxel at 500 μg/ml ([4]; saline solution containing up to 25% ethanol, after 1 hr): not soluble; recovery at 50 μg/mL ([5]; defatted human serum albumin (HSA) solution): 73%; recovery at 50 μg/mL ([5]; non-defatted human serum albumin (HSA) solution): 89%

Q: Which “in vivo activity compared with paclitaxel” value [2] does the source give for CC(=O)O[C@H]1C(=O)[C@@]2(C)[C@H]([C@H](OC(=O)c3ccccc3)[C@]3(O)C[C@H](OC(=O)[C@H](O[Si](C)(C)C(C)(C)C)[C@@H](NC(=O)c4ccccc4)c4ccccc4)C(C)=C1C3(C)C)[C@]1(OC(C)=O)CO[C@@H]1C[C@@H]2O [2′-(t-butyldimethylsilyl)taxol] here?
A: The value was “essentially inactive”.
